Consider two compounds from patent US10407430B2, “Janus kinase 1 selective inhibitor and pharmaceutical use thereof” (YANG JI CHEMICAL CO., LTD., priority 2015, dated 2019).

The nature of data set [1]: Pharmacokinetic test, oral or intravenous administration. It is filed as in vivo. Conditions: mouse, blood, 20 mg/kg, mice. As for the experimental part: A dose of the compound was about 20 mg/kg, which was orally or intraveneously administered one time, followed by blood collection from the jugular veins of three mice at each of blood sampling intervals, i.e., 0, 0.25 (15 min), 0.5 (30 min), 1, 2, 4, 6, 12, and 24 hours from the administration, and measuring a drug concentration.

The conditions of data set [2]: comparative drug (EMA), cited from earlier work.
For data set [3], the target named is T1, Human TYK2 (Homo sapiens, UniProt P29597).
T1 construct: purchased Millipore, Germany
T1 sequence (P29597 whole entry): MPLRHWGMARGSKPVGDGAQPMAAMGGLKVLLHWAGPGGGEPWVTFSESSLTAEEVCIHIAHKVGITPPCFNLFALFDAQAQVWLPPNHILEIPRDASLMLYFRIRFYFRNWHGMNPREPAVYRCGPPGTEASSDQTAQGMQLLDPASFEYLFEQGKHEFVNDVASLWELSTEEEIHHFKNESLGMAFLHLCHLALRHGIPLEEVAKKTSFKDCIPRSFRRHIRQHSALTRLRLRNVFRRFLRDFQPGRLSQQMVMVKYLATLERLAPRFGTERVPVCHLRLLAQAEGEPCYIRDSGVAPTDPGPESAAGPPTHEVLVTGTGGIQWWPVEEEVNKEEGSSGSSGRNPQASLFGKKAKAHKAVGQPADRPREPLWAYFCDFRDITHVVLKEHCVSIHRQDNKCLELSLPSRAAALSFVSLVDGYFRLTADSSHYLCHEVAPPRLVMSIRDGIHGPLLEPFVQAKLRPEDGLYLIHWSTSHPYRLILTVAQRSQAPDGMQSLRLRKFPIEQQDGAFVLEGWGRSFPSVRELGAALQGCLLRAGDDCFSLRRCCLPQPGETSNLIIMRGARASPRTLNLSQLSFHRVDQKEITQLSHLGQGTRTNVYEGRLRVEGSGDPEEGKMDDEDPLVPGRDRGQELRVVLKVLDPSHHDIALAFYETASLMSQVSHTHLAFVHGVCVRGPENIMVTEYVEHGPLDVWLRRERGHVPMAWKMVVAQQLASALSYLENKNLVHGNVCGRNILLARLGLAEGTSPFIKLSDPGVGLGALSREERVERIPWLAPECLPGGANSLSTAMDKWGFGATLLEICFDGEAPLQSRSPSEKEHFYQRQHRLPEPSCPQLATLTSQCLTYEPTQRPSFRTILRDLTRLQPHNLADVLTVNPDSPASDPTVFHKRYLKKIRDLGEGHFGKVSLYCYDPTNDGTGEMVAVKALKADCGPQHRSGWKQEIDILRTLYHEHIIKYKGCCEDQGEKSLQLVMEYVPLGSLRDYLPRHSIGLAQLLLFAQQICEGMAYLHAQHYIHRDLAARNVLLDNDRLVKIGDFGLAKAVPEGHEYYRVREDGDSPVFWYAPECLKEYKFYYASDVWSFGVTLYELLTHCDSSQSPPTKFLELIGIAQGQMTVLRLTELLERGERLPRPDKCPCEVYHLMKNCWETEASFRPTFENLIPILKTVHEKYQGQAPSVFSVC
As to the kind of experiment: In-vitro kinase inhibition test, TYK2. Particulars: read-out: TYK2 kinase-phosphorylation inhibitory level (% inhibition). It is filed as biochemical.
Experimental: Human-derived JAK1, JAK2, JAK3 and TYK2 (Millipore, Germany) were used as kinases. Each kinase was diluted with an appropriate buffer as described below, and then mixed with reaction reagents.
3-morpholinopropane-1-sulfonic acid (MOPS) and EDTA were dissolved in deionized water at a concentration of 20 mM and 1 mM, respectively, and then 100 μL of β-mercaptoethanol, 10 μL of Brij-35™, 5 mL of glycerol, and 100 mg of bovine serum albumin (BSA), each per 100 mL of the solution, were added to the solution, thereby preparing a dilution buffer for JAK2, JAK3, and TYK2.
Each compound was dissolved in a 100%-DMSO solution at a concentration of about 50 μM. This prepared solution was reacted with reaction reagents in each well of a 96-well plate until a final concentration of the compound reached 1 μM. A detailed experimental method for each kinase is as follows.
After reaction for about 40 minutes at room temperature, the reaction was stopped by adding 5 uL of a 3% (v/v) phosphoric acid solution.
The inhibitory levels (% inhibition) represent a percentage of reduction in phosphorylation activity in each test group with respect to the phosphorylation activity of a corresponding kinase in a negative control group lacking any of the compounds synthesized in the examples. % inhibition=[(Scintillation value of Test compound non-treatment group−Scintillation value of Test compound treatment group)/(Scintillation value of Test compound non-treatment group)]×100

Counter-ions that a name gives are not always drawn. Like-named read-outs stand apart in the source and are kept apart here.

The term AUC(0-t) denotes the area under the concentration-time curve up to a stated or last time point. Lower therefore signals less exposure. What is called Cmax is the highest concentration seen after dosing. As a reminder, the half-life is the time needed for the level to fall by half in the phase considered. As a reminder, the Tmax is the time at which the peak concentration occurs. By bioavailability is commonly meant dose-corrected exposure relative to a reference, in per cent. As for `CN(c1ncnc2[nH]ccc12)[C@@H]1CCN(C(=O)CC#N)C1.Cl` [Example 51, (R)-3-(3-(methyl(7H-pyrrolo[2,3-d]pyrimidine-4-yl)amino)pyrrolidine-1-yl)-3-oxopropanenitrile hydrochloride], in data set [1] (intravenous injection), the AUC(0-t) was 18900 ng·h/mL, the Cmax was found to be 15500 ng/mL and the half-life was 1.97 h. Moreover, in data set [1] (oral administration), the AUC(0-t) stood at 13100 ng·h/mL, the peak level (Cmax) was 4530 ng/mL, the Tmax stood at 0.5 h and the bioavailability is 69.1%. In data set [1] (oral administration), this compound had a half-life of 2.78 h.

Usually inhibition stands for the share of the control response that was lost under treatment. In the case of `CC1CCN(C(=O)CC#N)CC1N(C)c1ncnc2[nH]ccc12` (stereo not drawn) [tofacitinib citrate, 3-{4-methyl-3-[methyl-(7H-pyrrolo[2,3-d]pyrimidine-4-yl)-amino]-piperidine-1-yl}-3-oxo-propionitrile], in data set [2] (intravenous injection, 5 mg/kg), the AUC0→t is 3180 ng·h/mL and the t1/2 is given as 2.8 h. In data set [2] (oral administration, 10 mg/kg), the AUC0→t is 2750 ng·h/mL, the Cmax is 2400 ng/mL, the bioavailability is on record as 43.3% and the t1/2 is 2.0 h. Further, the inhibition at 1 µM in data set [3] came to 100%.
